Reference: US12246008B2, “4-amino or 4-alkoxy-substituted aryl sulfonamide compounds with selective activity in voltage-gated sodium channels” (Merck Sharp & Dohme LLC, priority 2018, dated 2025)
Like-named read-outs stand apart in the source and are kept apart here.

Columns and labels:
Assay in all cases: Qube automated patch-clamp assay, inhibition of sodium current
Assay type in all cases: cell-based
[1] = biological target: T1, human Nav1.6 channels stably expressed in HEK 293 cells (Homo sapiens, UniProt Q9UQD0); conditions: holding potential −65 mV; max concentration tested 33750 nM
T1 construct: expressed in transfected cells; host or cells: HEK 293
Procedure: (§1) Qube™ Experimental Procedure:
(§2) Compounds were tested on human Nav1.7 and Nav1.6 channels stably expressed in HEK 293 cells. […] Cells were sealed on a planar substrate using the multihole technology. Cells expressing human Nav1.7 channels were held at −75 mV or −80 mV. Cells expressing human Nav1.6 channels were held at −65 mV. A train of 6 consecutive test pulses to −10 mV, preceded by 8 s prepulses to −115 mV, was applied at a frequency of 0.1 Hz before and after compound addition. Cells in each Qchip well were incubated in compound for 5 minutes before measuring inhibition. Peak currents were measured in control conditions and after compound addition. The following recording solutions were used (mM). External Nav1.6: 150 NaCl, 2 CaCl2), 5 KCl, 1 Mg Cl2, 10 HEPES, 12 Dextrose; external Nav1.7: 40 NaCl, 120 NMDG, 1 KCl, 0.5 MgCl2, 5 HEPES, 2.7 CaCl2); internal: 120 CsF, 30 CsCl, 10 EGTA, 5 HEPES, 5 NaF, 2 MgCl2. Compounds were prepared as 10 mM stock solutions in DMSO. 10 point compound titrations were generated using the Echo acoustic liquid handling instrument and glass coated 384 well plates. The final DMSO concentration in the assay was 0.3%. For all electrophysiology experiments, offline analysis was used to determine percent inhibition as a function of drug concentration. IC50 values were determined by fitting to the Hill equation.
(§3) The various compounds in EXAMPLES 1 through 43 and TABLE 2 exemplified above were assayed for activity and selectivity using the foregoing Qube® technique. The results are reported in TABLE 3 in a format expressing the identification of the compound with reference EXAMPLE followed by the observed potency in nM for NaV1.7, NaV1.6 and NaV1.5. NA signifies not applicable and the max concentration tested is 33750 nM.

[2] = biological target: T2, human Nav1.7 channels stably expressed in HEK 293 cells (Homo sapiens, UniProt Q15858); conditions: max concentration tested 33750 nM, read-out: NaV1.7 (nM)
T2 construct: expressed in transfected cells; host or cells: HEK 293
Procedure: as §1, §2, §3

[3] = biological target: NaV1.5 (Homo sapiens, UniProt Q14524); conditions: holding potential −80 mV; max concentration tested 33750 nM
Procedure: as §2, §3

[4] = holding potential −75 mV, −75 mV
[5] = holding potential −80 mV, −80 mV

T1 sequence (Q9UQD0 whole entry): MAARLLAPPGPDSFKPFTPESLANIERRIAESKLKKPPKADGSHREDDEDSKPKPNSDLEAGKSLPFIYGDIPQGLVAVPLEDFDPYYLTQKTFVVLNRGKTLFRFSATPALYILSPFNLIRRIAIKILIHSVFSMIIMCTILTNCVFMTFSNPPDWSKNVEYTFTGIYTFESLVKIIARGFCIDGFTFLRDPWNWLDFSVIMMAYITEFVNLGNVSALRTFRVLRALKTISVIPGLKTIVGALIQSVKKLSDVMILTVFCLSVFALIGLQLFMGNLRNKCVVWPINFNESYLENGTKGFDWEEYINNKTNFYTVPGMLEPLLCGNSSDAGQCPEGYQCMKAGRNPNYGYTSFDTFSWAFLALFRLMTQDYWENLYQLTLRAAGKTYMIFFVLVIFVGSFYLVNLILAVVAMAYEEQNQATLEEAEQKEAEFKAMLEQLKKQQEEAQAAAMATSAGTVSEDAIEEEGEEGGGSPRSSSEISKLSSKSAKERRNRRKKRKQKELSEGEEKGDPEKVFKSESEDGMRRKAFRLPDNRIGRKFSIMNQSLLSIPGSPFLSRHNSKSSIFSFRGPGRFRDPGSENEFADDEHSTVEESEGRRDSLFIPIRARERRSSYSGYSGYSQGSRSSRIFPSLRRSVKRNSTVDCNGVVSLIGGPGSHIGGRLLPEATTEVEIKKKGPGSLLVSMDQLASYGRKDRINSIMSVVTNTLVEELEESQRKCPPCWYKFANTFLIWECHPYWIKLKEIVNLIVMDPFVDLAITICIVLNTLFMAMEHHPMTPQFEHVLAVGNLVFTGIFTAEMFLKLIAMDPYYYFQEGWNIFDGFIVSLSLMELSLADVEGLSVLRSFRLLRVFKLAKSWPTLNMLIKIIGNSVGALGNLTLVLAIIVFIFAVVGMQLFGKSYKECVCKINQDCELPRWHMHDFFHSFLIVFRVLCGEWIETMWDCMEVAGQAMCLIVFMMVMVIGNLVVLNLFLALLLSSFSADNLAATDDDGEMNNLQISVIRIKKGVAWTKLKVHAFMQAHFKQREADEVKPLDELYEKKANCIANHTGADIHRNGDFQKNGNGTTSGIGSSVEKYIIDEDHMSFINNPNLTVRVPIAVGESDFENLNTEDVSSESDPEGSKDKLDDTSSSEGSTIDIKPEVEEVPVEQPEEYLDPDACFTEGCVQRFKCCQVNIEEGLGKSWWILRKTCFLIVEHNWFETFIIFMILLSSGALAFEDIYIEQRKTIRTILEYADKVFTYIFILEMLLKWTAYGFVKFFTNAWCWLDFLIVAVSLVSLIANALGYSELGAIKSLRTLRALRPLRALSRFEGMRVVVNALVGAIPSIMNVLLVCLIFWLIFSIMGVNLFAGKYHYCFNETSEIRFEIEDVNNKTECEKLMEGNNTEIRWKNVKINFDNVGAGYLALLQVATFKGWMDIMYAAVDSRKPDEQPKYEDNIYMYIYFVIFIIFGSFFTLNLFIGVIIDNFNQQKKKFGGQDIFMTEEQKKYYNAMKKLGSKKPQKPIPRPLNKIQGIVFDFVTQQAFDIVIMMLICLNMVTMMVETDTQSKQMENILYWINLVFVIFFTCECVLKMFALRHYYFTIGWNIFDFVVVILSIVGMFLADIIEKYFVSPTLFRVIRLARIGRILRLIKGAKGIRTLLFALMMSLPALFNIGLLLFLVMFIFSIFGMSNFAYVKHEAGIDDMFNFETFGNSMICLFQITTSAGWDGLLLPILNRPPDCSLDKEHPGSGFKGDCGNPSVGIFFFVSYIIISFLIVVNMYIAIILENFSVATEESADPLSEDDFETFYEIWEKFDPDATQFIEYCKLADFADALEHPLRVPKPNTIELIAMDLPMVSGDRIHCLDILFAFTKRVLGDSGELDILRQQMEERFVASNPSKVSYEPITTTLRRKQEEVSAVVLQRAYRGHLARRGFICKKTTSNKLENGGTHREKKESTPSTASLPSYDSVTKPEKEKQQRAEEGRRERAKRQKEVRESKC
Chain of NaV1.5 (Q14524 whole entry): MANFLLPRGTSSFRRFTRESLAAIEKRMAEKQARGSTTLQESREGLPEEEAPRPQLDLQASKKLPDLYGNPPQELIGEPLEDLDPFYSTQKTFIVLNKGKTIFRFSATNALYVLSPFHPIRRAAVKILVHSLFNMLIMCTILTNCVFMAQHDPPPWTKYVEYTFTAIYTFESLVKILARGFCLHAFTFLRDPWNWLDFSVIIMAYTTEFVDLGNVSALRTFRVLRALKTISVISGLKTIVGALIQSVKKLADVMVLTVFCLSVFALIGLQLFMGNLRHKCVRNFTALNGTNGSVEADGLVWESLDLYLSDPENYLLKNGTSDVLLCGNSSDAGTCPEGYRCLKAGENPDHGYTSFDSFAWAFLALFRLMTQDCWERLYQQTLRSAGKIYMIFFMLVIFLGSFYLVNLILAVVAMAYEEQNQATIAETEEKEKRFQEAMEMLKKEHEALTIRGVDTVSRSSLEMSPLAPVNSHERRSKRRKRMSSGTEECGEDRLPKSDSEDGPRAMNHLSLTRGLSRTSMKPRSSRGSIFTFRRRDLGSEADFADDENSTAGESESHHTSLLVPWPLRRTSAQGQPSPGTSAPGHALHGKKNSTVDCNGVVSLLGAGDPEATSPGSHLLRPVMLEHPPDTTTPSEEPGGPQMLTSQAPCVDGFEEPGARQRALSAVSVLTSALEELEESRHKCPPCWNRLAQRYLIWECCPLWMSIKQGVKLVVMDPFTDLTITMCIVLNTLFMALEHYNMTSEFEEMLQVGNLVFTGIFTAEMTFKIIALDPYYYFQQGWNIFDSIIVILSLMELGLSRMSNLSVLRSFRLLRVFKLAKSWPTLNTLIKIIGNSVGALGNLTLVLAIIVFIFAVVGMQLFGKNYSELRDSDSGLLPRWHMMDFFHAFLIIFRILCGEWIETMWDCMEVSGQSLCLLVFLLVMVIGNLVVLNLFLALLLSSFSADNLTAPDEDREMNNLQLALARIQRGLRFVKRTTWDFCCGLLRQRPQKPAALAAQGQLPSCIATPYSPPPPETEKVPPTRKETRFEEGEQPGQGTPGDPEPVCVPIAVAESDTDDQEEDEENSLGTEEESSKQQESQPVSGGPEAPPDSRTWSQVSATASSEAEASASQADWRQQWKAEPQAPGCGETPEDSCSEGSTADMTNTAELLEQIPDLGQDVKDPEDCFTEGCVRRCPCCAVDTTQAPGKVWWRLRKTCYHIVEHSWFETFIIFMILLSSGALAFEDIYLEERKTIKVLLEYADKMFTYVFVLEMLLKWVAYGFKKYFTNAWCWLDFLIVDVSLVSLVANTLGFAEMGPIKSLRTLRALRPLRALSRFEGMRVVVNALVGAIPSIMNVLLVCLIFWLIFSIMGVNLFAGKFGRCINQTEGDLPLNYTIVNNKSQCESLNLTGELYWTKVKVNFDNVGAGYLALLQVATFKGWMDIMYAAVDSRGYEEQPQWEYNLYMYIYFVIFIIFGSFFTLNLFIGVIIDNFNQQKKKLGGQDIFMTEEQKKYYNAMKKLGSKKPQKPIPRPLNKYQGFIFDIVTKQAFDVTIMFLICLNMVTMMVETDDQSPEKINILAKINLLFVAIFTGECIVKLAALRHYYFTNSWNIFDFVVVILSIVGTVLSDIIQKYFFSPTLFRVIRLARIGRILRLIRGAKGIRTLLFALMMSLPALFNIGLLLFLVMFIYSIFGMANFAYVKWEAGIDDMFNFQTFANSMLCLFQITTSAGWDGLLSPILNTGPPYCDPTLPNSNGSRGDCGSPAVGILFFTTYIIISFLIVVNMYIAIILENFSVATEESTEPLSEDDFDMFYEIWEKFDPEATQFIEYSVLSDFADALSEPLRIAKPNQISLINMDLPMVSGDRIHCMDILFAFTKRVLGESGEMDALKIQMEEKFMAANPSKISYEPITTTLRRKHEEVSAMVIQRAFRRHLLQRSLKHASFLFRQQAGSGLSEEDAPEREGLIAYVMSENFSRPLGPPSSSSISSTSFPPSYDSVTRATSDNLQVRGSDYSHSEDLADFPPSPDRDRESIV

SMILES	IC50 [1]	IC50 [2, 4]	IC50 [2, 5]	IC50 [3]
C[C@@H](N)[C@H](CNc1cc(F)c(S(=O)(=O)Nc2ncns2)cc1F)CC1(CCN(C)C)CCC1 [Example 43, 4-(((2S,3R)-3-amino-2-((1-(2-(dimethylamino)ethyl)cyclobutyl)methyl)butyl)amino)-2,5-difluoro-N-(1,2,4-thiadiazol-5-yl)benzenesulfonamide]	> 33800 nM	–	61 nM	> 33800 nM
C[C@@H](N)C(CNc1cc(F)c(S(=O)(=O)Nc2ncns2)cc1Cl)CN1CCCC1 (stereo partly shown) [Example 110]	> 33800 nM	110 nM	–	> 33800 nM
CC(C)[C@@H](N)[C@H](CNc1cc(F)c(S(=O)(=O)Nc2ncns2)cc1Cl)CC(C)(C)CCN [Example 27, 4-(((S)-6-amino-2-((R)-1-amino-2-methylpropyl)-4,4-dimethylhexyl)amino)-5-chloro-2-fluoro-N-(1,2,4-thiadiazol-5-yl)benzenesulfonamide bis(2,2,2-trifluoroacetate)]	> 33800 nM	41 nM	–	> 33800 nM
C[C@@H](N)[C@H](CNc1cc(F)c(S(=O)(=O)Nc2ncns2)cc1F)CC(N)CC(F)(F)F (single isomer, unassigned) [Example 85]	> 33800 nM	72 nM	–	> 33800 nM
C[C@@H](N)[C@H](CNc1ccc(S(=O)(=O)Nc2ncns2)c(F)c1F)CC1(CCN)CCC1 [Example 100]	> 33800 nM	–	52 nM	> 33800 nM
C[C@@H](N)C(CNc1cc(F)c(S(=O)(=O)Nc2ncns2)cc1F)CC1CCCC1CN (single isomer, unassigned) [Example 46]	> 33800 nM	–	57 nM	> 33800 nM
C[C@@H](N)C(CNc1cc(F)c(S(=O)(=O)Nc2ncns2)cc1Cl)CC(C)(C)CN (single isomer, unassigned) [Example 3]	> 33800 nM	41 nM	–	> 33800 nM
C[C@@H](N)C(CNc1cc(F)c(S(=O)(=O)Nc2ncns2)cc1F)CC1CCCCC1CCN (single isomer, unassigned) [Example 60]	> 33800 nM	–	12 nM	20600 nM
CC(C)(CCN)C[C@@H](CNc1cc(F)c(S(=O)(=O)Nc2ncns2)cc1Cl)[C@H](N)CC1CC1 [Example 29, 4-(((S)-6-amino-2-((R)-1-amino-2-cyclopropylethyl)-4,4-dimethylhexyl)amino)-5-chloro-2-fluoro-N-(1,2,4-thiadiazol-5-yl)benzenesulfonamide bis(2,2,2-trifluoroacetate)]	> 33800 nM	95 nM	–	> 33800 nM
CC(C)N(CC(CNc1cc(F)c(S(=O)(=O)Nc2ncns2)cc1F)[C@@H](C)N)C[C@@H](C)N (single isomer, unassigned) [Example 38]	> 33800 nM	109 nM	–	> 33800 nM
C[C@@H](N)C(CNc1cc(F)c(S(=O)(=O)Nc2ncns2)cc1F)CC1NC2CCC1C2 (single isomer, unassigned) [Example 111]	> 33800 nM	–	65 nM	13000 nM
C[C@@H](N)C(CNc1cc(F)c(S(=O)(=O)Nc2ncns2)cc1F)C(N)C1CCC1 (single isomer, unassigned) [Example 34]	> 33800 nM	77 nM	–	> 33800 nM
C[C@@H](N)C(CNc1ccc(S(=O)(=O)Nc2ncns2)c(F)c1)CC1(CCN)CC(F)(F)C1 (single isomer, unassigned) [Example 59]	> 33800 nM	–	38 nM	> 33800 nM
CCC(CN)CC(CNc1cc(F)c(S(=O)(=O)Nc2ncns2)cc1F)[C@@H](C)N (single isomer, unassigned) [Example 93]	> 33800 nM	16 nM	–	> 33800 nM
C[C@@H](N)[C@H](CNc1ncc(S(=O)(=O)Nc2ncns2)cc1Br)CC(C)(C)CCN [Example 30, 6-(((S)-6-amino-2-((R)-1-aminoethyl)-4,4-dimethylhexyl)amino)-5-bromo-N-(1,2,4-thiadiazol-5-yl)pyridine-3-sulfonamide]	> 33800 nM	77 nM	–	> 33800 nM

The next lines start with results.

IC50 [1]	IC50 [2, 4]	IC50 [2, 5]	SMILES	IC50 [3]
> 33800 nM	71 nM	–	C[C@@H](N)[C@H](CNc1cc(F)c(S(=O)(=O)Nc2ncns2)cc1CO)CC(N)C1CC1 (stereo partly shown) [Example 80]	> 33800 nM
> 33800 nM	–	165 nM	C[C@@H](N)C(CNc1cc(F)c(S(=O)(=O)Nc2ncns2)cc1F)CC1(C)CCC1CN (single isomer, unassigned) [Example 53]	> 33800 nM
> 33800 nM	–	210 nM	CC(C)N(CC(CNc1cc(F)c(S(=O)(=O)Nc2ncns2)cc1F)[C@@H](C)N)C[C@@H](C)N (single isomer, unassigned) [Example 39]	> 33800 nM
> 33800 nM	–	271 nM	C[C@@H](N)C(CNc1cc(F)c(S(=O)(=O)Nc2ncns2)cc1F)CC1CCCCC1CCN (single isomer, unassigned) [Example 65]	> 33800 nM
> 33800 nM	–	156 nM	C[C@@H](N)C(CNc1cc(F)c(S(=O)(=O)Nc2ncns2)cc1F)CC1CCCCC1CCN (single isomer, unassigned) [Example 63]	> 33800 nM
> 33800 nM	8 nM	–	C[C@@H](N)[C@H](CNc1cc(F)c(S(=O)(=O)Nc2ncns2)cc1F)CC1(CCN)CCC1 [Example 10, 4-(((2S,3R)-3-amino-2-((1-(2-aminoethyl)cyclobutyl)methyl)butyl)amino)-2,5-difluoro-N-(1,2,4-thiadiazol-5-yl)benzenesulfonamide]	> 33800 nM
> 33800 nM	–	16 nM	C[C@@H](N)C(CNc1cc(F)c(S(=O)(=O)Nc2ncns2)cc1F)CC1CCCCC1CCN (single isomer, unassigned) [Example 61]	> 33800 nM
697 nM	3 nM	–	CC(C)C(N)CC(CNc1cc(F)c(S(=O)(=O)Nc2ncns2)cc1Br)[C@@H](C)N (single isomer, unassigned) [Example 109]	15600 nM
> 33800 nM	–	149 nM	C[C@@H](N)[C@H](CNc1cc(F)c(S(=O)(=O)Nc2ncns2)cc1F)CC(N)C1(C)CC1 (stereo partly drawn) [Example 18, 4-(((2S)-4-amino-2-((R)-1-aminoethyl)-4-(1-methylcyclopropyl)butyl)amino)-2,5-difluoro-N-(1,2,4-thiadiazol-5-yl)benzenesulfonamide]	> 33800 nM
> 33800 nM	133 nM	–	C[C@@H](N)[C@H](CNc1cc(F)c(S(=O)(=O)Nc2ccncn2)cc1Cl)CC(C)(C)CCN [Example 12, 4-(((S)-6-amino-2-((R)-1-aminoethyl)-4,4-dimethylhexyl)amino)-5-chloro-2-fluoro-N-(pyrimidin-4-yl)benzenesulfonamide]	> 33800 nM
> 33800 nM	19 nM	–	Cc1cc(NC[C@H](CC(C)(C)CCN)[C@@H](C)N)c(Cl)cc1S(=O)(=O)Nc1ncns1 [Example 32, 4-(((S)-6-amino-2-((R)-1-aminoethyl)-4,4-dimethylhexyl)amino)-5-chloro-2-methyl-N-(1,2,4-thiadiazol-5-yl)benzenesulfonamide]	20700 nM
> 33800 nM	7 nM	28 nM	C[C@@H](N)C(CNc1cc(F)c(S(=O)(=O)Nc2ncns2)cc1F)C[C@@]1(C)CCC[C@@H]1CN (single isomer, unassigned) [Example 97]	> 33800 nM
> 33800 nM	82 nM	–	CC(C)NCC(CNc1cc(F)c(S(=O)(=O)Nc2ncns2)cc1Cl)[C@@H](C)N (single isomer, unassigned) [Example 36]	> 33800 nM
10100 nM	37 nM	–	Cc1cc(NC[C@H](CC(C)(C)CCN)[C@@H](C)N)c(C#N)cc1S(=O)(=O)Nc1ncns1 [Example 68]	> 33800 nM
12100 nM	–	26 nM	CC[C@@H](N)C(CNc1cc(F)c(S(=O)(=O)Nc2ncns2)c(F)c1F)CC1(CCN)CCC1 (single isomer, unassigned) [Example 22]	> 33800 nM
20700 nM	118 nM	–	C[C@H]1NCCNCC(C)(C)C[C@H]1CNc1cc(F)c(S(=O)(=O)Nc2ncns2)cc1Cl [Example 5, 5-chloro-2-fluoro-N-(1,2,4-thiadiazol-5-yl)-4-((((5R,6S)-5,8,8-trimethyl-1,4-diazonan-6-yl)methyl)amino)benzenesulfonamide]	> 33800 nM
